From DBAASP
≈ marks a conversion by molar mass, not a printed value.

What was measured:
Experiment in all cases: ≥ marks a high value that may be exact or a test limit, other limits are often not marked, values filed in µg/mL are converted to µM
Acinetobacter baumannii = system: Acinetobacter baumannii
[1] = system: Escherichia coli ATCC 25922
[2] = system: Klebsiella pneumoniae ATCC 700603
[3] = system: Pseudomonas aeruginosa ATCC 9027
[4] = system: Staphylococcus aureus ATCC 25923
[5] = system: Candida albicans ATCC 2002
[6] = system: Staphylococcus aureus ATCC 2592
[7] = system: Bacillus subtilis ATCC 6633
[8] = system: Staphylococcus aureus ATCC 33591
Bacillus subtilis 168 = system: Bacillus subtilis 168
Escherichia coli B = system: Escherichia coli B
Pseudomonas aeruginosa = system: Pseudomonas aeruginosa
Staphylococcus aureus = system: Staphylococcus aureus
Escherichia coli UB1005 = system: Escherichia coli UB1005
Escherichia coli = system: Escherichia coli
[9] = system: Salmonella enterica subsp. enterica serovar Typhimurium C77-31
[10] = system: Staphylococcus aureus ATCC 29213
[11] = system: Staphylococcus epidermidis ATCC 12228

| Structure (SMILES) | MIC (Acinetobacter baumannii) [µM] | MIC [1] [µM] | MIC [4] [µM] | MIC [6] [µM] | MIC (Pseudomonas aeruginosa) [µM] | MIC (Staphylococcus aureus) [µM] | other results |
| --- | --- | --- | --- | --- | --- | --- | --- |
| CC[C@H](C)[C@H](NC(=O)[C@H](C)N)C(=O)N[C@@H](CC(C)C)C(=O)N[C@@H](CCCN=C(N)N)C(=O)N[C@@H](CCCCN)C(=O)N[C@@H](C)C(=O)N[C@H](C(=O)N[C@@H](CCCN=C(N)N)C(=O)N[C@@H](CCCN=C(N)N)C(=O)N[C@@H](CC(C)C)C(=O)N[C@H](C(=O)N[C@@H](CCCCN)C(=O)N[C@@H](CC(C)C)C(=O)N[C@H](C(=O)N[C@H](C(N)=O)C(C)C)[C@@H](C)CC)C(C)C)[C@@H](C)O [AILRKATRRLVKLIV] | 6.25 (≈ 10.9 µg/mL) | 20 (≈ 35 µg/mL) | > 25 |  |  |  | MIC [2]: > 25 µM; MIC [3]: 20 µM (≈ 35 µg/mL) |
| CC[C@H](C)[C@H](NC(=O)CNC(=O)CNC(=O)[C@H](C)NC(=O)[C@H](CCCCN)NC(=O)[C@H](C)N)C(=O)NCC(=O)NCC(=O)N[C@@H](Cc1cnc[nH]1)C(=O)N[C@H](C(=O)N[C@H](C(=O)NCC(=O)N[C@@H](CCC(N)=O)C(=O)N[C@H](C(=O)N[C@H](C(=O)NCC(=O)N[C@H](C(=O)N[C@@H](CCCN=C(N)N)C(=O)N[C@H](C(=O)N[C@@H](CCCN=C(N)N)C(=O)NCC(=O)N[C@@H](CC(C)C)C(=O)NCC(=O)NCC(=O)N[C@@H](CC(N)=O)C(=O)N[C@H](C(=O)O)C(C)C)[C@@H](C)CC)C(C)C)C(C)C)[C@@H](C)CC)[C@@H](C)CC)C(C)C [AKAGGIGGHVIGQIVGVRIRGLGGNV] |  | 20.4 (≈ 50 µg/mL) |  | 2.57 (≈ 6.3 µg/mL) |  |  | MIC [5]: 20.4 µM (≈ 50 µg/mL) |
| CC[C@H](C)[C@H](NC(=O)[C@H](CCCN=C(N)N)NC(=O)[C@@H](NC(=O)[C@@H]1CCCN1C(=O)[C@@H](NC(=O)[C@@H](NC(=O)[C@H](CCC(N)=O)NC(=O)[C@@H]1CCCN1C(=O)[C@@H](NC(=O)[C@@H](NC(=O)[C@H](Cc1cnc[nH]1)NC(=O)[C@@H]1CCCN1C(=O)[C@@H]1CCCN1C(=O)[C@@H](NC(=O)CNC(=O)CNC(=O)[C@H](C)NC(=O)[C@H](CCCCN)NC(=O)[C@H](C)N)[C@@H](C)CC)C(C)C)[C@@H](C)CC)[C@@H](C)CC)C(C)C)C(C)C)C(=O)N[C@@H](CCCN=C(N)N)C(=O)N1CCC[C@H]1C(=O)N[C@@H](CC(C)C)C(=O)N[C@@H](CS)C(=O)NCC(=O)N[C@@H](CC(N)=O)C(=O)N[C@H](C(=O)O)C(C)C [AKAGGIPPHVIPQIVPVRIRPLCGNV] |  | 18.5 (≈ 50 µg/mL) |  | 4.66 (≈ 12.6 µg/mL) |  |  | MIC [5]: 9.25 µM (≈ 25 µg/mL) |
| CC[C@H](C)[C@@H]1NC(=O)[C@H](CO)NC(=O)[C@H](CCCCN)NC(=O)[C@H]([C@@H](C)O)NC(=O)[C@H](Cc2c[nH]c3ccccc23)NC(=O)[C@@H](NC(=O)CN)CSSC[C@@H](C(=O)N[C@@H](Cc2ccccc2)C(=O)O)NC(=O)[C@@H]2CCCN2C(=O)[C@H](CCCCN)NC(=O)[C@@H]2CCCN2C(=O)[C@@H]2CCCN2C1=O [GCWTKSIPPKPCF] |  |  |  | 2.22 (≈ 3.25 µg/mL) |  |  |  |
| CC[C@H](C)[C@H](NC(=O)[C@@H](N)CCCCN)C(=O)N[C@@H](Cc1c[nH]c2ccccc12)C(=O)N[C@@H](Cc1ccccc1)C(=O)N[C@@H](CCC(N)=O)C(=O)N[C@@H](CC(N)=O)C(=O)N[C@@H](CCCCN)C(=O)N[C@@H](CCCCN)C(=O)N[C@@H](CCSC)C(=O)N[C@@H](CCCCN)C(=O)N[C@@H](Cc1c[nH]c2ccccc12)C(=O)N[C@@H](CCCCN)C(=O)N[C@@H](CCCCN)C(N)=O [KIWFQNKKMKWKK] |  | 256 (≈ 459 µg/mL) |  |  |  |  | MIC [8]: ≥ 256 µM |
| CC(C)C[C@H](NC(=O)[C@H](CCCN=C(N)N)NC(=O)[C@H](Cc1c[nH]c2ccccc12)NC(=O)[C@H](CCCN=C(N)N)NC(=O)[C@@H](NC(=O)[C@H](CCCN=C(N)N)NC(=O)[C@H](Cc1c[nH]c2ccccc12)NC(=O)[C@H](CCCN=C(N)N)NC(=O)[C@H](CC(C)C)NC(=O)[C@H](CCCN=C(N)N)NC(=O)[C@@H](N)Cc1c[nH]c2ccccc12)[C@@H](C)O)C(=O)N[C@@H](CCCN=C(N)N)C(N)=O [WRLRWRTRWRLR] | 4 (≈ 7.36 µg/mL) | 4 (≈ 7.36 µg/mL) | 2 (≈ 3.68 µg/mL) |  | 16 (≈ 29.4 µg/mL) | 2 (≈ 3.68 µg/mL) | MIC (Escherichia coli UB1005): 4 µM (≈ 7.36 µg/mL); MIC (Escherichia coli): 2 µM (≈ 3.68 µg/mL); MIC [9]: 4 µM (≈ 7.36 µg/mL); MIC [10]: 2 µM (≈ 3.68 µg/mL); MIC [11]: 2 µM (≈ 3.68 µg/mL) |

Second part, led by results:

| MIC (Acinetobacter baumannii) [µM] | MIC [1] [µM] | MIC [4] [µM] | MIC [6] [µM] | MIC (Pseudomonas aeruginosa) [µM] | MIC (Staphylococcus aureus) [µM] | Structure (SMILES) | other results |
| --- | --- | --- | --- | --- | --- | --- | --- |
|  |  |  | 10.9 (≈ 20 µg/mL) |  |  | CC[C@H](C)[C@H](NC(=O)[C@H](CCCCN)NC(=O)[C@@H]1CCCN1C(=O)[C@H](CC(C)C)NC(=O)[C@@H](NC(=O)[C@H](CO)NC(=O)CNC(=O)[C@H](CC(C)C)NC(=O)[C@H](C)NC(=O)CNC(=O)[C@H](CC(C)C)NC(=O)[C@@H](NC(=O)[C@H](CC(C)C)NC(=O)[C@@H]1CCCN1C(=O)[C@H](Cc1ccccc1)NC(=O)[C@@H](N)Cc1ccccc1)C(C)C)[C@@H](C)CC)C(=O)N[C@@H](Cc1ccccc1)C(N)=O [FFPLVLGALGSILPKIF] | MIC [7]: 5.46 µM (≈ 9.99 µg/mL) |
|  |  |  |  | > 100 | > 100 | CC[C@H](C)[C@H](NC(=O)[C@H](CCCCN)NC(=O)[C@H](CCCCN)NC(=O)[C@H](Cc1c[nH]c2ccccc12)NC(=O)[C@H](CC(N)=O)NC(=O)[C@@H](N)C(C)C)C(=O)N[C@@H](CC(C)C)C(=O)NCC(N)=O [VNWKKILG] | MIC (Bacillus subtilis 168): ≥ 200 µM; MIC (Escherichia coli B): ≥ 100 µM |
| 2.83 (≈ 4.96 µg/mL) | 4 (≈ 7.02 µg/mL) | 2 (≈ 3.51 µg/mL) |  | 4 (≈ 7.02 µg/mL) | 2 (≈ 3.51 µg/mL) | CC(C)[C@H](NC(=O)[C@H](CCCN=C(N)N)NC(=O)[C@H](Cc1c[nH]c2ccccc12)NC(=O)[C@H](CCCN=C(N)N)NC(=O)[C@@H](NC(=O)[C@H](CCCCN)NC(=O)[C@H](Cc1c[nH]c2ccccc12)NC(=O)[C@H](CCCN=C(N)N)NC(=O)[C@@H](NC(=O)[C@H](CCCN=C(N)N)NC(=O)[C@@H](N)Cc1c[nH]c2ccccc12)C(C)C)C(C)C)C(=O)N[C@@H](CCCCN)C(N)=O [WRVRWKVRWRVK] | MIC (Escherichia coli UB1005): 2 µM (≈ 3.51 µg/mL); MIC (Escherichia coli): 1 µM (≈ 1.75 µg/mL); MIC [9]: 2 µM (≈ 3.51 µg/mL); MIC [10]: 1 µM (≈ 1.75 µg/mL); MIC [11]: 2 µM (≈ 3.51 µg/mL) |
|  |  |  |  | > 100 | > 100 | CC[C@H](C)[C@H](NC(=O)[C@H](CC(C)C)NC(=O)[C@H](Cc1cnc[nH]1)NC(=O)CNC(=O)[C@H](CC(C)C)NC(=O)[C@@H](NC(=O)[C@H](CCCCN)NC(=O)[C@H](CO)NC(=O)[C@@H](N)Cc1c[nH]c2ccccc12)[C@@H](C)CC)C(=O)N[C@@H](CCCN=C(N)N)C(N)=O [WSKILGHLIR] | MIC (Bacillus subtilis 168): 18.3 µM (≈ 22.4 µg/mL); MIC (Escherichia coli B): ≥ 100 µM |
